The nature of series [1]: Cytotoxicity against mouse BMMC cells assessed as inhibition of cell growth incubated for 48 hrs by MTT assay. It counts as toxicity, cell-based. In general terms: Tetrazolium dyes change colour on reduction, which living cells bring about.
Series [2] relates to BMMC. Description: Anti-osteoclastogenic activity in mouse BMMC cells assessed as inhibition of RANKL mediated osteoclast differentiation by TRAP activity. The series is classed as functional, cell-based.
In series [3] the target is Mitogen-activated protein kinase 1 and 3 (ERK2 and ERK1) (Mus musculus) (UniProt P63085+Q63844). Briefly: Inhibition of RANKL-induced ERK1/2 phosphorylation in mouse BMMC cells by Western blot analysis. Conditions: dose 0.5-1.5 µM. It counts as cell-based. On the technique in general: A western blot detects proteins with antibodies after separation by electrophoresis.
Sequence of Mitogen-activated protein kinase 1 and 3 (ERK2 and ERK1) (Mus musculus) (P63085 whole entry, looked up): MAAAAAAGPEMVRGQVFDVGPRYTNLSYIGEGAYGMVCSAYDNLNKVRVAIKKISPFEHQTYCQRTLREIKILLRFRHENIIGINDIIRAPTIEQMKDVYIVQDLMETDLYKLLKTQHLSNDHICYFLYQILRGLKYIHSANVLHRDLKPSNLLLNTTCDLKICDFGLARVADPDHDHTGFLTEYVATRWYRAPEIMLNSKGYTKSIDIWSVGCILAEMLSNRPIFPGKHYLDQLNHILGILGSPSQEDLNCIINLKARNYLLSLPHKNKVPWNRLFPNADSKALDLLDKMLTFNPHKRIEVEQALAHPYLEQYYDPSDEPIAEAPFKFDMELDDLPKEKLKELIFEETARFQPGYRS
Sequence of Mitogen-activated protein kinase 1 and 3 (ERK2 and ERK1) (Mus musculus) (Q63844 whole entry, looked up): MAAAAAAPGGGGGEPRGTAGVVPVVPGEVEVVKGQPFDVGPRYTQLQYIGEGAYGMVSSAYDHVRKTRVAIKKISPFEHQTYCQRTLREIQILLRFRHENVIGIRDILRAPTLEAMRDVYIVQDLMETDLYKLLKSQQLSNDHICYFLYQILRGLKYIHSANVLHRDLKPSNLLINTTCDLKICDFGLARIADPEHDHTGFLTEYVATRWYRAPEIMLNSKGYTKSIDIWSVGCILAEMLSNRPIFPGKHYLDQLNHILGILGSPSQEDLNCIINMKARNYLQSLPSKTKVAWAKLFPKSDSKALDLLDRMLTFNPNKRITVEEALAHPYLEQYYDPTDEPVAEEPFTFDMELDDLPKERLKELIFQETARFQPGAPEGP

Series [4] has as its target MAP kinase p38 (Mus musculus) (UniProt P47811+O08911+Q9WUI1+Q9Z1B7). Description: Inhibition of RANKL-induced p38 MAPK phosphorylation in mouse BMMC cells by Western blot analysis. It counts as cell-based. The note with it: dose 0.5-1.5 µM.
For series [5], the system named is BMMC. Briefly: Inhibition of RANKL-induced JNK1/2 phosphorylation in mouse BMMC cells by Western blot analysis. It counts as cell-based. Conditions: dose 0.5-1.5 µM.
Series [6] in a line: Selectivity index, ratio of CC50 for cytotoxicity against mouse BMMC cells to IC50 for anti-osteoclastogenic activity in mouse BMMC cells. The series is classed as toxicity, cell-based. The note with it: read-out: Ratio CC50/IC50.
Series [7] has as its system BMMC. Briefly: Inhibition of RANKL-induced NFkappaB signaling in mouse BMMC cells assessed as inhibition of NFkappab nuclear translocation at 5 to 10 uM by Western blot analysis. The series is classed as cell-based. Conditions: dose 5-10 µM.

Activity calls are given as the source filed them. The rule behind the calls is not given here.

We go through one compound from ChEMBL document CHEMBL5385917, “Irpetones A and B, Anti-Osteoclastic Heptaketides from a Marine Mesophotic Zone Ircinia Sponge-Associated Fungus Irpex sp. NBUF088” (J Nat Prod, 2024).

One may read the CC50 as the concentration giving 50% cytotoxicity. Broadly, the IC50 is the midpoint of a concentration-inhibition curve.

In the case of `C[C@@H]1C=C2C=C[C@@](C)(O)[C@]3(C)C(=O)[C@@](O)(CO)O[C@@H](C1)[C@@H]23`, in series [1], the CC50 at 48 h is > 30 µM. For the same compound, in series [2], the half-maximal inhibitory concentration (IC50) is 6.3 µM. In addition, the inhibition result in series [3], in series [4] and in series [5] was “Dose-Dependent Effect” throughout. Moreover, in series [6], the selectivity ratio is > 4.8. Besides, the inhibition entry in series [7] is “Active”.
